Tested on: stallion sperm cells
Assay: Motility of Hoechst-stained stallion sperm diluted in KMT with or without stimulant (Example 5)
Assay type: cell-based
Design: Motility 3h: unit not given here
Settings: for Motility 3h / Progressive 3h: Motility Stimulants, 2 mM caffeine or 2.5 mM NaPyruvate in KMT; for Motility 3h with stimulant / Progressive 3h with stimulant: in % (unit assumed)
Experimental: Sperm cells in ejaculates from three stallions were initially evaluated for volume, concentration, and motility. The remaining portion of each ejaculate was extended in KMT to 25×10^6 sperm/mL and stored at RT for 18 hr. The stored ejaculates were pelleted by centrifugation at 600 g for 10 min. Pelleted sperm cells were resuspended in KMT with Hoechst to generate sperm samples of 400×10^6 sperm/mL,12.4 μl Hoechst, adjusted to either 7.1 pH or 7.9 pH, and then incubated at 34° C. for either 30 min or 60 min. Stained sperm cell samples were extended with either 1 mL KMT with 1.5 μl/mL 5% red food dye; 1 mL KMT with 2.0 μl/mL 5% red food dye; 1 mL KMT with 2.5 μl/mL 5% red food dye; or 1 mL KMT with 3.0 μl/mL […] red food dye. Sperm cell samples were then evaluated for % dead and resolution by flow cytometry analysis, and motility was evaluated by further diluting treated samples in either 140 μl KMT: 20 μl sperm cells; 140 μl KMT 2 mM caffeine: 20 μl sperm cells; 140 μl KMT, 2.5 mM NaPyruvate: 20 μl sperm cells.

[1] = stain time 30 min (12 samples only)
[2] = stain time 60 min (12 samples only)

SMILES	Motility 3h	Progressive 3h	Motility 3h with stimulant (food coloring 1.5 μl/mL)	Progressive 3h with stimulant (food coloring 1.5 μl/mL)	Motility 3h with stimulant (food coloring 2 μl/mL)	Progressive 3h with stimulant (food coloring 2 μl/mL)	Motility 3h with stimulant (food coloring 2.5 μl/mL)	Progressive 3h with stimulant (food coloring 2.5 μl/mL)	Motility 3h with stimulant (food coloring 3 μl/mL)	Progressive 3h with stimulant (food coloring 3 μl/mL)	Motility 3h with stimulant (pH 7.1, stain time 30 min)	Progressive 3h with stimulant (pH 7.1, stain time 30 min)	Motility 3h with stimulant (pH 7.1, stain time 60 min)	Progressive 3h with stimulant (pH 7.1, stain time 60 min)	Motility 3h with stimulant (pH 7.9, stain time 30 min)	Progressive 3h with stimulant (pH 7.9, stain time 30 min)	Motility 3h with stimulant (pH 7.9, stain time 60 min)	Progressive 3h with stimulant (pH 7.9, stain time 60 min)	Motility 3h with stimulant (stain pH 7.1)	Progressive 3h with stimulant (stain pH 7.1)	further results
Cn1c(=O)c2c(ncn2C)n(C)c1=O [Caffeine, caffeine]	67.71	66.56	66.67	65.42	68.33	67.5	68.75	67.92	67.08	65.42	66.67	65	70	70	66.67	65	67.5	65.83	68.54	67.5	Effect of stimulant on sperm cell motility (FIG. 5) (about 2 mM): stimulate motility; Motility 3h with stimulant (stain pH 7.9): 66.88; Progressive 3h with stimulant (stain pH 7.9): 65.63; Motility 3h with stimulant [1]: 66.67; Progressive 3h with stimulant [1]: 65; Motility 3h with stimulant [2]: 68.75; Progressive 3h with stimulant [2]: 67.92; Motility 3h with stimulant (stallion Gunsmoke): 66.25; Progressive 3h with stimulant (stallion Gunsmoke): 63.13; Motility 3h with stimulant (stallion Rowdy): 67.5; Progressive 3h with stimulant (stallion Rowdy): 67.5; Motility 3h with stimulant (stallion Sylekt): 69.38; Progressive 3h with stimulant (stallion Sylekt): 69.06
CC(=O)C(=O)O [Pyruvate, NaPyruvate]	65.1	62.29	64.58	62.08	65	60.83	65.83	64.58	65	61.67	64.17	60.83	67.5	66.67	65	60	64.17	62.5	65.83	63.13	Motility 3h with stimulant (stain pH 7.9): 64.38; Progressive 3h with stimulant (stain pH 7.9): 61.46; Motility 3h with stimulant [1]: 64.58; Progressive 3h with stimulant [1]: 60.42; Motility 3h with stimulant [2]: 65.83; Progressive 3h with stimulant [2]: 64.58; Motility 3h with stimulant (stallion Gunsmoke): 62.19; Progressive 3h with stimulant (stallion Gunsmoke): 56.56; Motility 3h with stimulant (stallion Rowdy): 67.19; Progressive 3h with stimulant (stallion Rowdy): 67.19; Motility 3h with stimulant (stallion Sylekt): 65.94; Progressive 3h with stimulant (stallion Sylekt): 63.13
